{
  "source": "patent US20250144083A1",
  "about": "“METHODS AND COMPOSITIONS FOR TREATING CANCER IN TAXANE-RESISTANT PATIENTS” (MODRA PHARMACEUTICALS B.V., priority 2022, published 2025)",
  "format_in_all_cases": "cell-based",
  "key": {"[1]": {"system": "DU-145 prostate cancer cells", "test": "3D clonogenic assay, parental DU-145", "conditions": "for IC50: Homo sapiens, read-out: IC50 value of cabazitaxel", "procedure": "(§1) For the single agent efficacy experiment, a master stock solution of cabazitaxel was prepared by dissolving compound powder in DMSO at a concentration of 10 mM. From this a working stock solution of 0.1 mM (330-fold the highest test concentration) was prepared. Small aliquots of this solution were stored at −20° C. On each day of an experiment, a frozen aliquot of the working stock solution was thawed and stored at room temperature prior to and during treatment. First, serial half-log dilutions of the working stock solution were prepared in DMSO. These dilutions were then diluted 1:22 into cell culture medium in an intermediate dilution plate. Finally, 10 μl taken from the intermediate dilution plate were transferred to 140 μl/well of the final assay plate. Thus, the DMSO working stock was diluted 1:330, and the DMSO concentration in the assay was 0.3% v/v.\n(§2) For combination experiments, working stock solutions of docetaxel, ritonavir, elacridar, and cabazitaxel were prepared in DMSO at concentrations of 660-fold the highest test concentration used. Small aliquots of this stock solution were stored at −20° C. On each day of an experiment, a frozen aliquot of the working stock solutions was thawed and stored at room temperature prior to and during treatment. First, 1:2 dilutions of 660-fold concentrated working stocks were done in DMSO (in case of monotherapy controls), or equal amounts of the compound working stocks were mixed (in case of drug combinations). Then, different dilutions of these 330-fold concentrated solutions were done in DMSO to give a 8*2 matrix combination layout. The DMSO dilutions were further diluted 1:22 into cell culture medium (IMDM, supplemented with 20% (v/v) fetal calf serum, 50 μg/ml gentamicin) in an intermediate dilution plate. Finally, 10 μl taken from the intermediate dilution plate were transferred to 140 μl of cells and medium per well of the final assay plate. Thus, the DMSO dilutions used for the mono- and the combination-treatment were diluted 1:330, and the DMSO concentration in the assay was 0.3% v/v.\n(§3) DU-145 DOC10 was generated from DU-145 and 22Rv1 DOC8 was generated from 22Rv1. 22Rv1 was obtained from American Type Culture Collection (ATCC, Rockville, MD, USA), whereas DU-145 was obtained from National Cancer Institute (NCI, Bethesda, MD, USA).\n(§4) Tumour cell lines were grown at 37° C. in a humidified atmosphere with 5% CO2 in RPMI 1640 medium (Biochrom) supplemented with 10% (v/v) fetal calf serum and 50 μg/ml gentamicin. Docetaxel resistant sublines were cultured in the presence of 8 nM (22Rv1) or 10 nM docetaxel (DU-145). The cells were routinely passaged once or twice weekly and maintained in culture for up to 20 passages. For the assay, cells were harvested using TrypLE and the percentage of viable cells was determined by the CASY TT cell counter (OMNI Life Science).\n(§5) The clonogenic assay was carried out in a 96 well plate format using ultra low attachment plates. For each test, cells were prepared and assay plates were prepared as follows: each test well contained a layer of semi-solid medium with tumour cells (50 μl), and a second layer of medium supernatant with or without test compound (100 μl). The cell layer consisted of 2·10^3 to 3·10^3 tumour cells per well, which were seeded in 50 μl/well cell culture medium (IMDM, supplemented with 20% (v/v) fetal calf serum, 50 μg/ml gentamicin, and 0.4% (w/v) agar). After 24 h, the soft-agar layer was covered with 90 μl of the same culture medium without agar, and 10 μl of control medium or test compound after serial dilution in DMSO and transfer in cell culture medium were added, and left on the cells for the duration of the experiment (continuous exposure, 100 μl drug overlay). Every plate included six untreated control wells and drug-treated groups. Duplicate values were obtained by testing single values per condition on one plate. […]"}, "[2]": {"system": "22Rv1 DOC8 prostate cancer cells", "test": "3D clonogenic assay, docetaxel-resistant 22Rv1 DOC8", "conditions": "for IC50: Homo sapiens, read-out: IC50 value of cabazitaxel", "procedure": "as §1, §2, §3, §4, §5"}, "[3]": {"system": "DU-145 DOC10 prostate cancer cells", "test": "3D clonogenic assay, docetaxel-resistant DU-145 DOC10", "conditions": "for Relative Resistance to cabazitaxel: compared to parental DU-145 cells without ritonavir; for IC50: Homo sapiens, read-out: IC50 value of cabazitaxel", "procedure": "as §1, §2, §3, §4, §5"}, "[4]": {"system": "22Rv1 prostate cancer cells", "test": "3D clonogenic assay, parental 22Rv1", "procedure": "as §1\nas §2, with “Finally, 10 μl taken from the intermediate dilution plate were transferred to 140 μl of cells and medium per well of the final assay plate. Thus, the DMSO dilutions used for the mono- and the combination-treatment were diluted 1:330, and the DMSO concentration in the assay was 0.3% v/v.” left out\nTumour cell lines were grown at 37° C. in a humidified atmosphere with 5% CO2 in RPMI 1640 medium (Biochrom) supplemented with 10% (v/v) fetal calf serum and 50 μg/ml gentamicin. […] For the assay, cells were harvested using TrypLE and the percentage of viable cells was determined by the CASY TT cell counter (OMNI Life Science). […]"}},
  "note": "“Also recorded” adds a separate entry of the source. Read-outs that look alike come from different tables or passages of the source.",
  "data": [
    {"smiles": "CO[C@H]1C(=O)[C@]2(C)[C@@H](OC)C[C@H]3OC[C@@]3(OC(C)=O)[C@H]2[C@H](OC(=O)c2ccccc2)[C@]2(O)C[C@H](OC(=O)[C@H](O)[C@@H](NC(=O)OC(C)(C)C)c3ccccc3)C(C)=C1C2(C)C", "note": "[cabazitaxel]", "values": [
      {"measurement": "tumour cell growth inhibition, monotherapy", "setting": "[1]; DU-145", "value": "inhibited tumour cell growth in a concentration dependent manner"},
      {"measurement": "IC50", "setting": "[1]; DU-145, DU145, 10 μM ritonavir", "value": 300, "unit": "pM"},
      {"measurement": "IC50", "setting": "[1]; DU-145, DU145, without ritonavir", "value": 600, "unit": "pM"},
      {"measurement": "tumour cell growth inhibition, monotherapy", "setting": "[2]; 22Rv1 DOC8", "value": "inhibited tumour cell growth in a concentration dependent manner"},
      {"measurement": "Relative Resistance to cabazitaxel", "setting": "[2]; 22Rv1 DOC8 without ritonavir, compared to parental 22Rv1 cells without ritonavir", "value": 14},
      {"measurement": "IC50", "setting": "[2]; 22Rv1, 22Rv1 DOC8, 10 μM ritonavir", "value": 5200, "unit": "pM"},
      {"measurement": "IC50", "setting": "[2]; 22Rv1, 22Rv1 DOC8, 32 μM ritonavir", "value": 700, "unit": "pM"},
      {"measurement": "IC50", "setting": "[2]; 22Rv1, 22Rv1 DOC8, without ritonavir", "value": 9500, "unit": "pM"},
      {"measurement": "fold higher relative IC50 value of cabazitaxel, monotherapy", "setting": "[2]; printed: for 22Rv1 compared to 22Rv1", "value": 14.5, "unit": "fold"},
      {"measurement": "Relative Resistance to cabazitaxel", "setting": "[3]; DU145 DOC10, 10 μM ritonavir", "value": 1},
      {"measurement": "Relative Resistance to cabazitaxel", "setting": "[3]; DU145 DOC10 without ritonavir", "value": 2.5},
      {"measurement": "tumour cell growth inhibition, monotherapy", "setting": "[3]; DU-145 DOC10", "value": "inhibited tumour cell growth in a concentration dependent manner"},
      {"measurement": "IC50", "setting": "[3]; DU-145, DU145 DOC10, 10 μM ritonavir", "value": 600, "unit": "pM"},
      {"measurement": "IC50", "setting": "[3]; DU-145, DU145 DOC10, without ritonavir", "value": 1500, "unit": "pM"},
      {"measurement": "shift of the IC50 value of cabazitaxel, monotherapy", "setting": "[3]; printed: DU-145 DOC8 vs. DU-145", "value": 2.7, "unit": "fold"},
      {"measurement": "tumour cell growth inhibition, monotherapy", "setting": "[4]; 22Rv1", "value": "inhibited tumour cell growth in a concentration dependent manner"},
      {"measurement": "IC50", "setting": "[4]; Homo sapiens, 22Rv1, without ritonavir, read-out: IC50 value of cabazitaxel", "value": 700, "unit": "pM"}
    ]},
    {"smiles": "COc1cc2c(cc1OC)CN(CCc1ccc(NC(=O)c3cccc4c(=O)c5cccc(OC)c5[nH]c34)cc1)CC2", "note": "[elacridar]", "values": [
      {"measurement": "reversal of docetaxel resistance", "setting": "[2]; 22Rv1 DOC8, by elacridar", "value": "reverses docetaxel resistance"},
      {"measurement": "reversal of docetaxel resistance", "setting": "[3]; DU-145 DOC10, by elacridar", "value": "reverses docetaxel resistance"}
    ]},
    {"smiles": "CC(C)c1nc(CN(C)C(=O)N[C@H](C(=O)N[C@@H](Cc2ccccc2)C[C@H](O)[C@H](Cc2ccccc2)NC(=O)OCc2cncs2)C(C)C)cs1", "note": "[ritonavir]", "values": [
      {"measurement": "ritonavir concentration that inhibits growth", "setting": "[1]; DU145, ritonavir alone", "value": "≥ 10", "unit": "µM"},
      {"measurement": "tumour colony formation", "setting": "[2]; 100 μM ritonavir, cell line not given", "value": "inhibited tumour colony formation completely"},
      {"measurement": "reversal of cabazitaxel resistance", "setting": "[2]; 22Rv1 DOC8, by ritonavir", "value": "completely reverted; also recorded: reverses cabazitaxel resistance"},
      {"measurement": "reversal of docetaxel resistance", "setting": "[2]; 22Rv1 DOC8, by ritonavir", "value": "reverses docetaxel resistance"},
      {"measurement": "reversal of cabazitaxel resistance", "setting": "[3]; DU145 DOC10, by ritonavir", "value": "reverses cabazitaxel resistance"},
      {"measurement": "ritonavir concentration that inhibits growth", "setting": "[3]; DU145 DOC10, ritonavir alone", "value": "≥ 10", "unit": "µM"},
      {"measurement": "reversal of docetaxel resistance", "setting": "[3]; DU-145 DOC10, by ritonavir", "value": "reverses docetaxel resistance"}
    ]}
  ]
}
